{"source": "patent US6736837B2", "about": "“Method for inducing hypothermia for treating neurological disorders” (priority 1997, dated 2004)", "origin": "cited, not measured here", "system": "tumors", "conditions": "for effect on tumor size: same dose", "note": "Like-named read-outs stand apart in the source and are kept apart here.", "data": [{"molecule": "O=c1[nH]cc(F)c(=O)[nH]1", "note": "[5-FU, 5-fluoruracil]", "values": [{"measurement": "effect on tumors", "setting": "hamsters, 50 mg/kg, during hypothermia with the tumors maintained at normal body temperature", "value": "regression and disappearance of tumors"}, {"measurement": "effect on tumor size", "setting": "hypothermic animals whose tumors were also hypothermic", "value": "did not affect tumor size"}, {"measurement": "effect on tumor size", "setting": "tumor-bearing animals that were not made hypothermic", "value": "did not affect tumor size"}]}]}
